Reference: article PMC8341922, “Glycosylated cyclophellitol-derived activity-based probes and inhibitors for cellulases” (RSC Chemical Biology, 2020)
Values belong to the molecule of their own block, whether it stands above or below them.

Columns and labels:
[1] = biological target: T1, HiCel7B (Mycothermus thermophilus, UniProt P56680); assay: continuous fluorescence inhibition kinetics with 4MU-GG, kapp vs [inhibitor]; also intact MS and crystal structure; assay type: biochemical; conditions: covalent; 50 mM sodium phosphate pH 7, 25 °C; 50 μM 4MU-GG; corrected for substrate KM; nucleophile E197; read-out: HiCel7B / K I
T1 construct: gene CEL7B; purified enzyme, gift from Novozymes; deglycosylated for crystals
T1 sequence (P56680 1-402): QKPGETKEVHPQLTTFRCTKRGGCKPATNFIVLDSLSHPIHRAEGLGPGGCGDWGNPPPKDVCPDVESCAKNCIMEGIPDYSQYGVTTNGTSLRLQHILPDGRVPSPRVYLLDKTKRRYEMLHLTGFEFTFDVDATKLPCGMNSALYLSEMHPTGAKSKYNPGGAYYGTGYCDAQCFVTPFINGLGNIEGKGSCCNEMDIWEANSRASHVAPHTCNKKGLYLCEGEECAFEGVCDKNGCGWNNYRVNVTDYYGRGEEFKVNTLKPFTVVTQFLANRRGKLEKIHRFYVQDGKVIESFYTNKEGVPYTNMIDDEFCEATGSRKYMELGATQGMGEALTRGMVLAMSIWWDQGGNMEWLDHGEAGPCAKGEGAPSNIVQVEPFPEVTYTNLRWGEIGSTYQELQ
Excerpt: continuous fluorescence inhibition kinetics with 4MU-GG, kapp vs [inhibitor]; also intact MS and crystal structure on HiCel7B

[2] = biological target: T1, HiCel7B; assay: continuous fluorescence inhibition kinetics with 4MU-GG, kapp vs [inhibitor]; assay type: biochemical; conditions: covalent, 50 mM sodium phosphate pH 7, 25 °C, 50 μM 4MU-GG, corrected for substrate KM, read-out: HiCel7B / K I
Excerpt: continuous fluorescence inhibition kinetics with 4MU-GG, kapp vs [inhibitor] on HiCel7B

[3] = biological target: T2, XynC (Aspergillus niger, UniProt A2QFV7); assay: biotin-avidin pulldown, label-free LC-MS/MS quantification; assay type: binding; conditions: covalent; labelled compound; native secretome, 37 °C, 2 h
T2 construct: gene xlnC; native, in xylan-grown A. niger secretome; about 35 kDa band

[4] = biological target: T3, CbhA (Aspergillus niger, UniProt Q9UVS9); assay: as above; assay type: binding; conditions: covalent; labelled compound; native secretome, 37 °C, 2 h
T3 construct: native, in xylan-grown A. niger secretome; about 60 kDa band
T3 sequence (Q9UVS9 18-452): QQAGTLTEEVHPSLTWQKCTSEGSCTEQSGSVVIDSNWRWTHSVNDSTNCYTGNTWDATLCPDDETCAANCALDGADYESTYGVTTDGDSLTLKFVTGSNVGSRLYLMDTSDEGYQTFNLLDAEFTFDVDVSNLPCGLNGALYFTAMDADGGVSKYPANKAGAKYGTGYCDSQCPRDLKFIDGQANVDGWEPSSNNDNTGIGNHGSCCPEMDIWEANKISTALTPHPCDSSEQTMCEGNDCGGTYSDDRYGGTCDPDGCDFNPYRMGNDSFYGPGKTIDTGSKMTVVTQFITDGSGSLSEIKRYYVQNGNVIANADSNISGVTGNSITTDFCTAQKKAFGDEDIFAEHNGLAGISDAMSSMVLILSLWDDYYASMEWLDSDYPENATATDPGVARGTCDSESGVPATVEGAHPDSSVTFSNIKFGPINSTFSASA

[5] = biological target: T4, CbhB (Aspergillus niger, UniProt Q9UVS8); assay: as above; assay type: binding; conditions: covalent; labelled compound; native secretome, 37 °C, 2 h
T4 construct: native, in xylan-grown A. niger secretome; about 80 kDa band
T4 sequence (Q9UVS8 22-536): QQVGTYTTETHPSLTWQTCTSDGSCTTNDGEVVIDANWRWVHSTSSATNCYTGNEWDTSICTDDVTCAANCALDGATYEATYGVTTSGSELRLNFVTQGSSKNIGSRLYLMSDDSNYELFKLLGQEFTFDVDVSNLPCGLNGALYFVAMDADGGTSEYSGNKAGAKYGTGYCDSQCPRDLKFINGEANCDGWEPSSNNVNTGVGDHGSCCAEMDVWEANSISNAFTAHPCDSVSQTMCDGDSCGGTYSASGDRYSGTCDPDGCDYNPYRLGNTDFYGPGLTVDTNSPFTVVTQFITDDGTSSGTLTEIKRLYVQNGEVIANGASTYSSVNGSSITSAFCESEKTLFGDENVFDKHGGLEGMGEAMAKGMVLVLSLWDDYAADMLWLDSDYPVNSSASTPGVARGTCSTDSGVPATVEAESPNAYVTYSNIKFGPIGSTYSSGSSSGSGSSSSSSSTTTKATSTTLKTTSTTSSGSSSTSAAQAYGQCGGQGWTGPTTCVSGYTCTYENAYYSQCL

[6] = substrate: Cc1cc(=O)oc2cc(O[C@@H]3O[C@H](CO)[C@@H](O[C@@H]4O[C@H](CO)[C@@H](O)[C@H](O)[C@H]4O)[C@H](O)[C@H]3O)ccc12; assay: fluorescence, 4-methylumbelliferone release; assay type: biochemical, Mycothermus thermophilus; conditions: 50 mM sodium phosphate pH 7, 25 °C, corrected for inner filter effect
Excerpt: fluorescence, 4-methylumbelliferone release on HiCel7B | The KM value for the interaction of HiCel7B with 4MU-GG under the assay conditions

Molecule: OC[C@@H]1C(O[C@@H]2O[C@H](CO)[C@@H](O[C@@H]3O[C@H](CO)[C@@H](O)[C@H](O)[C@H]3O)[C@H](O)[C@H]2O)C(O)C(O)[C@@H]2O[C@H]12 (stereo partly shown) [compound 5, inhibitor 5]
KI (inactivation) ([2]; compound also hydrolysed internally by the enzyme): 1.9 ± 0.3 µM

Molecule: O=C(CCCC[C@@H]1SC[C@@H]2NC(=O)N[C@@H]21)NCCOCCOCCOCC(=O)N[C@H]1[C@H](O)[C@@H](O)[C@H](O[C@H]2[C@H](O)[C@@H](O)[C@@H]3O[C@@H]3[C@@H]2CO)O[C@@H]1CO [compound 15, probe 15]
biotin-avidin pulldown, label-free LC-MS/MS quantification [3]: relative to the negative control were CbhA, CbhB, and XynC
biotin-avidin pulldown, label-free LC-MS/MS quantification [4]: detected at elevated levels in the probe 15-treated samples relative to the negative control were CbhA
biotin-avidin pulldown, label-free LC-MS/MS quantification [5]: detected at elevated levels in the probe 15-treated samples relative to the negative control were CbhA, CbhB

B1: HiCel7B (Mycothermus thermophilus) (protein)
chain: T1 sequence (P56680 1-402)
notes: purified enzyme, gift from Novozymes; deglycosylated for crystals
Km [6]: 76 µM

More lines, now with the values ahead:

KI (inactivation) [1]: 31 ± 4 µM
Molecule: OC[C@@H]1C(O[C@@H]2O[C@H](CO)[C@@H](O)[C@H](O)[C@H]2O)C(O)C(O)[C@@H]2O[C@H]12 (stereo partly shown) [compound 1, Cellobiose configured cyclophellitol]

KI (inactivation) [2]: 3.9 ± 0.3 µM
Molecule: [N-]=[N+]=NCCOCCOCCOCC(=O)N[C@H]1[C@H](O)[C@@H](O)[C@H](O[C@H]2[C@H](O)[C@@H](O)[C@@H]3O[C@@H]3[C@@H]2CO)O[C@@H]1CO [compound 13, probe 13]
